Data taken from PubChem BioAssay (NCI).
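Exposure lasted 48 hours, with cells grown in 96-well plates and compounds tested at five concentrations. Abbreviation: GI50, concentration required for 50% inhibition of growth. TGI is the concentration that stops growth completely.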

What was measured:
Test in all cases: NCI tumour cell line growth inhibition, 48 h
MALME-3M melanoma = system: MALME-3M melanoma
SK-MEL-5 melanoma = system: SK-MEL-5 melanoma
786-0 renal = system: 786-0 renal
T-47D breast = system: T-47D breast
K-562 leukemia = system: K-562 leukemia
SW-620 colon = system: SW-620 colon
SF-539 CNS = system: SF-539 CNS
MOLT-4 leukemia = system: MOLT-4 leukemia
NCI-H460 lung = system: NCI-H460 lung
CAKI-1 renal = system: CAKI-1 renal

Question: For `COc1cccc2c1c(C1=C(c3cn(C)c4ccccc34)C(=O)NC1=O)cn2C`, which GI50 (MALME-3M melanoma) is on record?
Answer: The GI50 was over 25 µM.

Question: What about the TGI (MALME-3M melanoma) of the same compound?
Answer: Its TGI is over 25 µM.

Question: What about the GI50 (SK-MEL-5 melanoma) of the same compound?
Answer: Its GI50 is over 25 µM.

Question: What about the TGI (SK-MEL-5 melanoma) of the same compound?
Answer: Its TGI is over 25 µM.

Question: What about the GI50 (786-0 renal) of the same compound?
Answer: The GI50 was over 25 µM.

Question: And the TGI (786-0 renal)?
Answer: Its TGI is over 25 µM.

Question: What about the GI50 (T-47D breast) of the same compound?
Answer: Its GI50 is over 25 µM.

Question: And the TGI (T-47D breast)?
Answer: The TGI was over 25 µM.

Question: What about the GI50 (K-562 leukemia) of the same compound?
Answer: The GI50 was over 23.9 µM.

Question: What about the TGI (K-562 leukemia) of the same compound?
Answer: Its TGI is over 25 µM.

Question: And the GI50 (SW-620 colon)?
Answer: Its GI50 is over 25 µM.

Question: What about the TGI (SW-620 colon) of the same compound?
Answer: Its TGI is over 25 µM.

Question: What about the GI50 (SF-539 CNS) of the same compound?
Answer: The GI50 was over 25 µM.

Question: And the TGI (SF-539 CNS)?
Answer: Its TGI is over 25 µM.

Question: And the GI50 (MOLT-4 leukemia)?
Answer: Its GI50 is over 25 µM.

Question: What about the TGI (MOLT-4 leukemia) of the same compound?
Answer: The TGI was over 25 µM.

Question: What about the GI50 (NCI-H460 lung) of the same compound?
Answer: Its GI50 is over 25 µM.

Question: And the TGI (NCI-H460 lung)?
Answer: The TGI was over 25 µM.

Question: What about the GI50 (CAKI-1 renal) of the same compound?
Answer: The GI50 was over 25 µM.

Question: What about the TGI (CAKI-1 renal) of the same compound?
Answer: Its TGI is over 25 µM.

Question: Which GI50 (MALME-3M melanoma) does the source give for `Cc1ncsc1-c1ccc(CNC(=O)[C@@H]2C[C@@H](O)CN2C(=O)[C@@H](NC(=O)C2(C#N)CC2)C(C)(C)C)cc1` here?
Answer: The GI50 was over 100 µM.

Question: What about the TGI (MALME-3M melanoma) of the same compound?
Answer: Its TGI is over 100 µM.

Question: What about the GI50 (SK-MEL-5 melanoma) of the same compound?
Answer: Its GI50 is over 100 µM.

Question: What about the TGI (SK-MEL-5 melanoma) of the same compound?
Answer: Its TGI is over 100 µM.

Question: What about the GI50 (786-0 renal) of the same compound?
Answer: The GI50 was over 100 µM.

Question: What about the TGI (786-0 renal) of the same compound?
Answer: The TGI was over 100 µM.

Question: And the GI50 (T-47D breast)?
Answer: The GI50 was over 100 µM.

Question: And the TGI (T-47D breast)?
Answer: The TGI was over 100 µM.

Question: What about the GI50 (SW-620 colon) of the same compound?
Answer: Its GI50 is over 100 µM.

Question: What about the TGI (SW-620 colon) of the same compound?
Answer: Its TGI is over 100 µM.

Question: What about the GI50 (SF-539 CNS) of the same compound?
Answer: The GI50 was over 100 µM.

Question: What about the TGI (SF-539 CNS) of the same compound?
Answer: Its TGI is over 100 µM.

Question: And the GI50 (MOLT-4 leukemia)?
Answer: Its GI50 is over 100 µM.

Question: What about the TGI (MOLT-4 leukemia) of the same compound?
Answer: The TGI was over 100 µM.

Question: And the GI50 (NCI-H460 lung)?
Answer: The GI50 was over 100 µM.

Question: And the TGI (NCI-H460 lung)?
Answer: The TGI was over 100 µM.

Question: What about the GI50 (CAKI-1 renal) of the same compound?
Answer: Its GI50 is 82 µM.

Question: What about the TGI (CAKI-1 renal) of the same compound?
Answer: Its TGI is over 100 µM.

Question: What does the source list for `CC1=C([Te]c2ccc(O)cc2)C(=O)c2ccccc2C1=O`?
Answer: GI50 (MALME-3M melanoma): 2.79 µM; TGI (MALME-3M melanoma): 7.12 µM; GI50 (SK-MEL-5 melanoma): 1.53 µM; TGI (SK-MEL-5 melanoma): 2.92 µM; GI50 (786-0 renal): 2.61 µM; TGI (786-0 renal): 7.88 µM; GI50 (T-47D breast): 1.1 µM; TGI (T-47D breast): 3.25 µM; GI50 (K-562 leukemia): 1.93 µM; TGI (K-562 leukemia): 4.36 µM; GI50 (SW-620 colon): 1.47 µM; TGI (SW-620 colon): 3.15 µM; GI50 (SF-539 CNS): 1.8 µM; TGI (SF-539 CNS): 4.23 µM; GI50 (MOLT-4 leukemia): 0.907 µM; TGI (MOLT-4 leukemia): 4.3 µM; GI50 (NCI-H460 lung): 0.347 µM; TGI (NCI-H460 lung): 1.62 µM; GI50 (CAKI-1 renal): 2.21 µM; TGI (CAKI-1 renal): 7.41 µM

Question: What does the source list for `O=C(NO)c1ccc(Cn2c(=O)n(-c3ccccc3F)c(=O)c3ccccc32)cc1`?
Answer: GI50 (MALME-3M melanoma): 0.892 µM; TGI (MALME-3M melanoma): 3.16 µM; GI50 (SK-MEL-5 melanoma): 1.51 µM; TGI (SK-MEL-5 melanoma): 2.96 µM; GI50 (786-0 renal): 1.82 µM; TGI (786-0 renal): 3.65 µM; GI50 (T-47D breast): 1.38 µM; TGI (T-47D breast): 5.92 µM; GI50 (K-562 leukemia): 2.62 µM; TGI (K-562 leukemia): > 100 µM; GI50 (SW-620 colon): 1.59 µM; TGI (SW-620 colon): 4.37 µM; GI50 (SF-539 CNS): 1.53 µM; TGI (SF-539 CNS): 4.58 µM; GI50 (MOLT-4 leukemia): 2.34 µM; TGI (MOLT-4 leukemia): > 100 µM; GI50 (NCI-H460 lung): 1.9 µM; TGI (NCI-H460 lung): 10.4 µM; GI50 (CAKI-1 renal): 2.25 µM; TGI (CAKI-1 renal): 7.15 µM

Question: With `S=c1nc(Cl)cc2[nH]c(Cl)cn12` as the compound, how does the TGI (MALME-3M melanoma) read?
Answer: Its TGI is over 100 µM.

Question: And the TGI (SK-MEL-5 melanoma)?
Answer: Its TGI is 17.5 µM.

Question: What about the TGI (786-0 renal) of the same compound?
Answer: Its TGI is over 100 µM.

Question: And the TGI (T-47D breast)?
Answer: Its TGI is over 100 µM.

Question: What about the TGI (SW-620 colon) of the same compound?
Answer: The TGI was over 100 µM.

Question: And the TGI (SF-539 CNS)?
Answer: Its TGI is 5.69 µM.

Question: What about the TGI (NCI-H460 lung) of the same compound?
Answer: Its TGI is over 100 µM.

Question: What about the TGI (CAKI-1 renal) of the same compound?
Answer: The TGI was over 100 µM.

Question: How did the GI50 (MALME-3M melanoma) turn out when `COc1ccc(-c2c(-c3cc(OC)c(OC)c(OC)c3)noc2N)cc1` was run?
Answer: Its GI50 is 13.4 µM.

Question: What about the TGI (MALME-3M melanoma) of the same compound?
Answer: The TGI was 56.8 µM.

Question: What about the GI50 (SK-MEL-5 melanoma) of the same compound?
Answer: Its GI50 is under 0.01 µM.

Question: What about the TGI (SK-MEL-5 melanoma) of the same compound?
Answer: The TGI was 0.257 µM.

Question: And the GI50 (786-0 renal)?
Answer: The GI50 was under 0.017 µM.

Question: What about the GI50 (T-47D breast) of the same compound?
Answer: Its GI50 is 9.91 µM.

Question: And the TGI (T-47D breast)?
Answer: The TGI was over 100 µM.

Question: What about the GI50 (K-562 leukemia) of the same compound?
Answer: Its GI50 is under 0.01 µM.

Question: And the TGI (K-562 leukemia)?
Answer: Its TGI is over 100 µM.

Question: And the GI50 (SW-620 colon)?
Answer: The GI50 was under 0.01 µM.

Question: What about the TGI (SW-620 colon) of the same compound?
Answer: The TGI was over 100 µM.

Question: What about the GI50 (MOLT-4 leukemia) of the same compound?
Answer: The GI50 was 0.0312 µM.

Question: What about the TGI (MOLT-4 leukemia) of the same compound?
Answer: The TGI was 10.4 µM.

Question: And the GI50 (NCI-H460 lung)?
Answer: Its GI50 is under 0.015 µM.

Question: And the TGI (NCI-H460 lung)?
Answer: Its TGI is over 33.8 µM.

Question: What about the GI50 (CAKI-1 renal) of the same compound?
Answer: Its GI50 is under 0.01 µM.

Question: What about the TGI (CAKI-1 renal) of the same compound?
Answer: Its TGI is over 100 µM.

Question: Which results are given for `CC(=O)C1(N=Nc2ccc(S(N)(=O)=O)cc2)CCOC1=O` (stereo unspecified)?
Answer: TGI (MALME-3M melanoma): > 100 µM; TGI (SK-MEL-5 melanoma): > 100 µM; TGI (786-0 renal): > 100 µM; TGI (T-47D breast): > 100 µM; TGI (SW-620 colon): > 100 µM; TGI (SF-539 CNS): > 100 µM; TGI (NCI-H460 lung): > 100 µM; TGI (CAKI-1 renal): > 100 µM
